Legend:
[1] = test system: MCF7 cells; experiment: Cellular proliferation/cytotoxicity assay (Alamar Blue), MCF7; format: cell-based; details: Homo sapiens; MCF7, 48 hours, Alamar Blue (Resazurin); read-out: Anti-proliferative/cytotoxic activity: IC50 MCF7
Procedure: The anti-proliferative activity of the compounds as described herein, is evaluated using MCF7 and MDA-MB-468 (ATCC HTB-22 and HTB-132) cell lines and the Alamar Blue (Resazurin) cell viability assay (O'Brien et al. Eur J Biochem 267, 5421-5426, 2000). Resazurin is reduced to the fluorescent rescrufin by cellular dehydrogenase activity, correlating with viable, proliferating cells. Test compounds are dissolved as 10 mM solutions in DMSO and subsequently diluted. MCF7 or […] cells were seeded into 96 well flat bottom plates at a density of 10000 cells/well (MCF7) or 5000 cells/well (MDA-MB-468) in a volume of 200 μl/well. 24 hours after seeding, 1 μl each of the compound dilutions are added into each well of the 96 well plates. Each compound dilution is tested as at least as duplicates. Wells containing untreated control cells were filled with 200 μl DMEM containing 0.5% v:v DMSO. The cells are then incubated with the substances for 48 hours at 37° C. in a humidified atmosphere containing 5% carbon dioxide. To determine cell viability, 20 μl of a Resazurin solution (Sigma; 90 mg/l) are added. After 4 hours incubation at 37° C. the fluorescence is measured at an extinction of 544 nm and an emission of 590 nm (Wallac Victor2; Perkin Elmer, USA). For the calculation of the cell viability the emission value from untreated cells is set as 100% viability and the emission rates of treated cells are set in relation to the values of untreated cells. Viabilities are expressed as % values. The corresponding IC50 values of the compounds for cytotoxic activity are determined from the concentration-effect curves by means of non-linear regression. The analysis of the data is performed using a biostatistical program (GraphPad Prism, USA).

[2] = molecular target: T1, Akt1 (full-length Akt1, inactive) (Homo sapiens, UniProt P31749); experiment: Biochemical Akt1 (inactive) assay (full-length Akt1), IMAP, PDK1-dependent activation; details: activation by PDK1 with PIP3 vesicles, 50 μM ATP, 60 min. at room temperature; read-out: Inhibition of Akt1 activation (full-length Akt1, inactive): IC50
T1 construct: recombinant full-length human Akt1 a containing N-terminal His6 tag; His6 (N); purchased Upstate, UK #14-279; host or cells: baculovirus infected Sf21 insect cells
Procedure: The enzyme is purified using Ni2+/NTA-agarose (Upstate, UK; #14-279).
The enzyme is purified using Ni2+/NTA-agarose.
PDK1-dependent activation and subsequent enzymatic activity of Akt1: Activity of purified human Akt1 is routinely measured in an assay in which the enzyme is first activated by PDK1 in the presence of phosphatidylinositol-3,4,5-triphosphate (PIP3). Once activated, Akt1-dependent phosphorylation of a fluorescence labelled peptide substrate is measured by fluorescence polarisation using the IMAP technology (Molecular Devices).
The phospholipids are prepared as follows: 5 mg DOPC/DOPS are solved in 200 μl 10 mM Tris (pH 7.4) and 300 μg PIP3 are resuspended in 950 μl 10 mM Tris (pH 7.4) by pipetting. 950 μl solved PIP3 are mixed with 50 μl solved DOPC/DOPS and incubated for 2 h at a temperature below 20° C. Then the mixture is subjected to sonification for 30 min. at max. power until a translucent phopholipid vesicle preparation is obtained. Aliquots of the vesicle suspension are frozen at −80° C. until needed, likewise the solved DOPC/DOPS.
Assays are performed in 384-well plates. Incubations are carried out for 60 min. at room temperature. The reaction buffer mixture contains in a final volume of 25 μl: 10 mM Tris pH 7.4, 10 mM MgCl2. 1 mM DTT, and 0,1 mg/ml BSA. In contrast the activation buffer contains: 50 ng/well Akt1, 20 ng/well PDK1, 1.25 μM peptide substrat, 50 μM ATP, and phospholipid vesicles (1:20). Test compounds are added from stock solutions in DMSO before activation of Akt1 by PDK1. After the incubation the beads (IMAP binding reagent; Molecular Devices; 1:167) are added and the fluorescence polarization is measured (excitation 485 nm, emission 530 nm). The analysis of the data is performed using a biostatistical program.

T1 sequence (P31749 whole entry): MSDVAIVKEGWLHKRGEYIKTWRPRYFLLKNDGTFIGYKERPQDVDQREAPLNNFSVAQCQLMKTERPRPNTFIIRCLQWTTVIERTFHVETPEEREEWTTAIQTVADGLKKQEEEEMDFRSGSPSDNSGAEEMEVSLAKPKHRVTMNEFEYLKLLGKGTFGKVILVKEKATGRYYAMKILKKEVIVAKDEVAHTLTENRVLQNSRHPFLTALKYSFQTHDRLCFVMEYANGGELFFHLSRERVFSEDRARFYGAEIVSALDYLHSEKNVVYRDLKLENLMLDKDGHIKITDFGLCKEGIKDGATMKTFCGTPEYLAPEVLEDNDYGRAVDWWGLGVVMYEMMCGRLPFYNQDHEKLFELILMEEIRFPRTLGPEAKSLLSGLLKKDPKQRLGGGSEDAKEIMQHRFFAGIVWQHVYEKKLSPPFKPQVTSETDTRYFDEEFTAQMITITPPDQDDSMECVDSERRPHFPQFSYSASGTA

- IC50 [2]: ≤ 4.4 µM
SMILES: CC(C)(N)c1ccc(C(=O)Nc2ccc(Nc3cc(-c4cccc5c4oc4ccccc45)ncn3)cc2)cc1 [Compound 69, 4-(1-Amino-1-methyl-ethyl)-N-[4-(6-dibenzofuran-4-yl-pyrimidin-4-ylamino)-phenyl]-benzamide trifluoracetate]
- IC50 [1]: ≤ 16.6 µM
